Reference: PubChem BioAssay AID330 (DTP/NCI, 2004)
Several values for one entry are separate records, joined by “and”; a condition that tells them apart may be missing. Equal values may be shown once. Inconclusive results and toxic doses are left out. How the source made its calls: active means survival T/C of 150% or more; inactive means T/C below 125% in these data.

System: P388 leukemia ip, CD2F1 mice, survival T/C
Assay: NCI In Vivo Anticancer Drug Screen. Data for tumor model P388 Leukemia (intraperitoneal) in CD2F1 (CDF1) mice
Conditions: endpoint: median survival time, higher = longer survival
Summary of the method: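 Mice carrying the transplanted tumor received test compound or vehicle. Survival was recorded in each group, and the value is the treated-group measurement divided by that of the vehicle-treated control group.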

[1] = dose: 240.0 mg/kg/injection, schedule: Q01DX005 (ip), vehicle: saline with Tween-80
[2] = dose: 12.5 mg/kg/injection, schedule: Q01DX005 (ip), vehicle: Klucel (hydroxypropylcellulose) (HPC)
[3] = dose: 25.0 mg/kg/injection, schedule: Q01DX005 (ip), vehicle: Klucel (hydroxypropylcellulose) (HPC)
[4] = dose: 50.0 mg/kg/injection, schedule: Q01DX005 (ip), vehicle: Klucel (hydroxypropylcellulose) (HPC)
[5] = dose: 100.0 mg/kg/injection, schedule: Q01DX005 (ip), vehicle: Klucel (hydroxypropylcellulose) (HPC)
[6] = dose: 200.0 mg/kg/injection, schedule: Q01DX005 (ip), vehicle: Klucel (hydroxypropylcellulose) (HPC)
[7] = dose: 120.0 mg/kg/injection, schedule: Q01DX005 (ip), vehicle: Klucel (hydroxypropylcellulose) (HPC)
[8] = dose: 240.0 mg/kg/injection, schedule: Q01DX005 (ip), vehicle: Klucel (hydroxypropylcellulose) (HPC)
[9] = dose: 60.0 mg/kg/injection, schedule: Q01DX005 (ip), vehicle: saline with Tween-80
[10] = dose: 120.0 mg/kg/injection, schedule: Q01DX005 (ip), vehicle: saline with Tween-80
[11] = dose: 25.0 mg/kg/injection, schedule: Q01DX009 (ip), vehicle: distilled water + Tween-80
[12] = dose: 50.0 mg/kg/injection, schedule: Q01DX009 (ip), vehicle: distilled water + Tween-80
[13] = dose: 100.0 mg/kg/injection, schedule: Q01DX009 (ip), vehicle: distilled water + Tween-80
[14] = dose: 200.0 mg/kg/injection, schedule: Q01DX009 (ip), vehicle: distilled water + Tween-80
[15] = dose: 100.0 mg/kg/injection, schedule: Q01DX001 (ip), vehicle: saline with Tween-80
[16] = dose: 200.0 mg/kg/injection, schedule: Q01DX001 (ip), vehicle: saline with Tween-80

Measured: T/C

O=C(/C=C/c1c(-c2ccccc2)[nH]c2ccccc12)c1ccccc1O
inactive: dose: 7.5 mg/kg/injection, schedule: Q01DX005 (ip), vehicle: saline with Tween-80 106 % of control | dose: 15.0 mg/kg/injection, schedule: Q01DX005 (ip), vehicle: saline with Tween-80 92 % of control | dose: 30.0 mg/kg/injection, schedule: Q01DX005 (ip), vehicle: saline with Tween-80 90 % of control | [1] 88 % of control

NS(=O)(=O)c1ccc(N=Nc2nc3[nH]c(=O)[nH]c(=O)c3[nH]2)cc1
inactive: dose: 6.25 mg/kg/injection, schedule: Q01DX005 (ip), vehicle: Klucel (hydroxypropylcellulose) (HPC) 106 % of control | [2] 102 % of control | [3] 107 % of control

Nc1nc(-c2ccccc2N=NN2CCN(N=Nc3ccccc3-c3nc(N)c4ccccc4n3)CC2)nc2ccccc12
inactive: dose: 0.78 mg/kg/injection, schedule: Q01DX009 (ip), vehicle: Klucel (hydroxypropylcellulose) (HPC) 104 % of control | dose: 1.56 mg/kg/injection, schedule: Q01DX009 (ip), vehicle: Klucel (hydroxypropylcellulose) (HPC) 102 % of control | dose: 3.12 mg/kg/injection, schedule: Q01DX009 (ip), vehicle: Klucel (hydroxypropylcellulose) (HPC) 95 % of control | dose: 6.25 mg/kg/injection, schedule: Q01DX009 (ip), vehicle: Klucel (hydroxypropylcellulose) (HPC) 100 % of control

COc1ccc(O)c2c1C(=O)C=CC2=O
inactive: dose: 0.4 mg/kg/injection, schedule: Q01DX001 (ip), vehicle: saline with Tween-80 104 % of control | dose: 0.8 mg/kg/injection, schedule: Q01DX001 (ip), vehicle: saline with Tween-80 96 % of control | dose: 1.56 mg/kg/injection, schedule: Q01DX001 (ip), vehicle: saline with Tween-80 105 % of control | dose: 3.13 mg/kg/injection, schedule: Q01DX001 (ip), vehicle: saline with Tween-80 102 % of control

CN(C)CCC(c1ccccc1)C(CO)c1ccccc1 (stereo not given)
inactive: dose: 100.0 mg/kg/injection, schedule: Q01DX001 (ip), vehicle: Klucel (hydroxypropylcellulose) (HPC) 116 % of control | dose: 200.0 mg/kg/injection, schedule: Q01DX001 (ip), vehicle: Klucel (hydroxypropylcellulose) (HPC) 102 % of control

CC1(c2ccccc2)NC(=O)N(Sc2ccccc2)C1=O (stereo not given)
inactive: [4] 111 % of control | [5] 113 % of control | [6] 107 % of control

O=c1cccccc1O.O=c1cccccc1O.O=c1cccccc1O.[Ru]
inactive: [4] 96 % of control | [5] 100 % of control | [6] 116 % of control

C1=CCC(CC[Si]23OCCN(CCO2)CCO3)CC1 (stereo not given)
inactive: [2] 103 % of control | [3] 96 % of control | [4] 101 % of control and 96 % of control

Cc1cc2nc3ccc(=[N+](C)C)cc-3sc2cc1N
inactive: dose: 25.0 mg/kg/injection, schedule: Q04DX003 (ip), vehicle: saline 100 % of control and 108 % of control | dose: 50.0 mg/kg/injection, schedule: Q04DX003 (ip), vehicle: saline 117 % of control and 91 % of control | dose: 100.0 mg/kg/injection, schedule: Q04DX003 (ip), vehicle: saline 109 % of control and 123 % of control

N#CC1=C(Nc2ccccc2Cl)SC(c2ccncc2)NC1=O (stereo not given)
inactive: [7] 111 % of control | [8] 105 % of control

CCN(CC)CCOc1ccc(N=Nc2ccc(N)nc2N)cc1
inactive: [9] 102 % of control | [10] 93 % of control | [1] 101 % of control

CC(O)CC1(c2ccccc2)C(=O)NC(=O)NC1=O (stereo not given)
inactive: dose: 50.0 mg/kg/injection, schedule: Q01DX009 (ip), vehicle: saline with Tween-80 98 % of control | dose: 100.0 mg/kg/injection, schedule: Q01DX009 (ip), vehicle: saline with Tween-80 98 % of control | dose: 200.0 mg/kg/injection, schedule: Q01DX009 (ip), vehicle: saline with Tween-80 95 % of control

COC(=O)C(NC(=O)OCc1ccccc1)C(C)O (stereo not given)
inactive: dose: 12.5 mg/kg/injection, schedule: Q01DX009 (ip), vehicle: distilled water + Tween-80 90 % of control | [11] 102 % of control | [12] 100 % of control | [13] 105 % of control | [14] 94 % of control

Cc1cc2nc(/N=C/c3nc(O)c(C)[nH]3)[nH]c2cc1C
inactive: dose: 30.0 mg/kg/injection, schedule: Q01DX005 (ip), vehicle: Klucel (hydroxypropylcellulose) (HPC) 103 % of control | dose: 60.0 mg/kg/injection, schedule: Q01DX005 (ip), vehicle: Klucel (hydroxypropylcellulose) (HPC) 98 % of control | [7] 99 % of control | [8] 104 % of control

CC(=O)OC12CCCCC1C1(CCCCC1)N=[N+]2[O-] (stereo not given)
inactive: dose: 12.5 mg/kg/injection, schedule: Q01DX009 (ip), vehicle: other 105 % of control | dose: 25.0 mg/kg/injection, schedule: Q01DX009 (ip), vehicle: other 115 % of control | dose: 50.0 mg/kg/injection, schedule: Q01DX009 (ip), vehicle: other 100 % of control | dose: 100.0 mg/kg/injection, schedule: Q01DX009 (ip), vehicle: other 99 % of control | dose: 200.0 mg/kg/injection, schedule: Q01DX009 (ip), vehicle: other 112 % of control

O=c1[nH]cnc2cc(N3CCCCC3)c([N+](=O)[O-])cc12
inactive: dose: 100.0 mg/kg/injection, schedule: Q04DX003 (ip), vehicle: saline with Tween-80 102 % of control | dose: 200.0 mg/kg/injection, schedule: Q04DX003 (ip), vehicle: saline with Tween-80 94 % of control | dose: 400.0 mg/kg/injection, schedule: Q04DX003 (ip), vehicle: saline with Tween-80 94 % of control

CCN(CC)Cc1cc(N=Nc2ccc(N(C)C)cc2)ccc1O
inactive: [15] 88 % of control | [16] 88 % of control

Cc1ccc2c(c1)CCCc1c-2nn(-c2ccccc2)c1-c1ccc(Cl)cc1
inactive: dose: 50.0 mg/kg/injection, schedule: Q01DX005 (ip), vehicle: saline with Tween-80 86 % of control | dose: 100.0 mg/kg/injection, schedule: Q01DX005 (ip), vehicle: saline with Tween-80 92 % of control | dose: 200.0 mg/kg/injection, schedule: Q01DX005 (ip), vehicle: saline with Tween-80 90 % of control

Cc1ccc2nc(CC(=O)c3ccc(F)cc3)c(=O)[nH]c2c1
inactive: [9] 100 % of control | [10] 100 % of control | [1] 107 % of control

COc1cc2c(ccc3cc4cccc[n+]4cc32)c(Br)c1OC
inactive: dose: 12.5 mg/kg/injection, schedule: Q01DX009 (ip), vehicle: saline sonified 104 % of control | dose: 25.0 mg/kg/injection, schedule: Q01DX009 (ip), vehicle: saline sonified 118 % of control | dose: 50.0 mg/kg/injection, schedule: Q01DX009 (ip), vehicle: saline sonified 113 % of control

CCCCCCCCC(=O)Nc1ncc([N+](=O)[O-])s1
inactive: dose: 50.0 mg/kg/injection, schedule: Q01DX009 (ip), vehicle: Klucel (hydroxypropylcellulose) (HPC) 113 % of control | dose: 100.0 mg/kg/injection, schedule: Q01DX009 (ip), vehicle: Klucel (hydroxypropylcellulose) (HPC) 115 % of control | dose: 200.0 mg/kg/injection, schedule: Q01DX009 (ip), vehicle: Klucel (hydroxypropylcellulose) (HPC) 100 % of control

O=c1c(OCc2ccccc2)cccn1Cc1ccccc1
inactive: [11] 92 % of control | [12] 95 % of control | [13] 100 % of control | [14] 95 % of control | dose: 400.0 mg/kg/injection, schedule: Q01DX009 (ip), vehicle: distilled water + Tween-80 101 % of control

CC(O)C1CCCCN1 (stereo not given)
inactive: dose: 50.0 mg/kg/injection, schedule: Q01DX005 (ip), vehicle: saline 101 % of control | dose: 100.0 mg/kg/injection, schedule: Q01DX005 (ip), vehicle: saline 101 % of control | dose: 200.0 mg/kg/injection, schedule: Q01DX005 (ip), vehicle: saline 108 % of control

C#CC(C)(O)C(C)(C)C (stereo not given)
inactive: dose: 25.0 mg/kg/injection, schedule: Q01DX009 (ip), vehicle: saline 88 % of control | dose: 50.0 mg/kg/injection, schedule: Q01DX009 (ip), vehicle: saline 98 % of control | dose: 100.0 mg/kg/injection, schedule: Q01DX009 (ip), vehicle: saline 98 % of control

c1ccc2c(c1)OC1(CCSCC1)O2
inactive: [15] 95 % of control | [16] 95 % of control | dose: 400.0 mg/kg/injection, schedule: Q01DX001 (ip), vehicle: saline with Tween-80 100 % of control

CC(=O)C(F)(F)C(F)(F)C(F)(F)C(F)(F)C(C)=O
inactive: [9] 99 % of control | [10] 94 % of control | [1] 103 % of control
